How the values were obtained:
recombinant CD73 = recombinant CD73 (Homo sapiens (Human), UniProt P21589); assay: Inhibition of the CD73 enzyme in vitro (soluble recombinant CD73, AMP, Malachite Green); type: biochemical; conditions: recombinant CD73 0.5 nM, AMP 50 μM, 30 minutes at room temperature
Experimental: The concentration of inorganic phosphate was determined using a phosphate standard curve.

[1] = target: endogenous, cell-bound CD73 on SK-MEL-28 cells (Homo sapiens (Human), UniProt P21589); assay: Inhibition of endogenous, cell-bound CD73 enzyme activity in SK-MEL-28 cells (AMP, Malachite Green); type: cell-based; conditions: 100 μM AMP, 30 minutes at room temperature
Experimental: The day before the experiment, 5000 cells were plated per well in a 96-well plate. Cells were washed twice with 200 μL reaction buffer (20 mM HEPES, pH 7.4, 125 mM NaCl, 1 mM KCl, 2 mM MgCl2, 10 mM glucose) to remove residual inorganic phosphate. After washing, assays contained serial dilutions of test compounds and 100 μM of AMP in a total volume of 200 μL reaction buffer, with a final DMSO concentration ≤0.5%. After 30 minutes at room temperature, supernatant was removed from the cells. […] The concentration of inorganic phosphate was determined using a phosphate standard curve to determine IC50.

Chain of recombinant CD73 (P21589 27-547): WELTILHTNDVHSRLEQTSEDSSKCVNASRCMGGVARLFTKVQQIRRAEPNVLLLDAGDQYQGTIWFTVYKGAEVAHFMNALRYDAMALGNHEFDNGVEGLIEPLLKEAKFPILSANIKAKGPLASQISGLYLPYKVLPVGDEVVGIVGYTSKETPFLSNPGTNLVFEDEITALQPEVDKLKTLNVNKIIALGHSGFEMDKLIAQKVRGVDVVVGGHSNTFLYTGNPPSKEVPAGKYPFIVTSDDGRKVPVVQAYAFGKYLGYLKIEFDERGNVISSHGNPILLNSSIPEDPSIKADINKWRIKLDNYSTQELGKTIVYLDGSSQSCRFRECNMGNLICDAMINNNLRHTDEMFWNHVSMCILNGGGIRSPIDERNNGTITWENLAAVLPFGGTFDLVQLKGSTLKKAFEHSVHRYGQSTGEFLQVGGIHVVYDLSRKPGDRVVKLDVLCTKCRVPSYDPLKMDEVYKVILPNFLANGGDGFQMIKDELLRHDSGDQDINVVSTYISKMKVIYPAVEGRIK
Chain of endogenous, cell-bound CD73 on SK-MEL-28 cells (P21589 27-574): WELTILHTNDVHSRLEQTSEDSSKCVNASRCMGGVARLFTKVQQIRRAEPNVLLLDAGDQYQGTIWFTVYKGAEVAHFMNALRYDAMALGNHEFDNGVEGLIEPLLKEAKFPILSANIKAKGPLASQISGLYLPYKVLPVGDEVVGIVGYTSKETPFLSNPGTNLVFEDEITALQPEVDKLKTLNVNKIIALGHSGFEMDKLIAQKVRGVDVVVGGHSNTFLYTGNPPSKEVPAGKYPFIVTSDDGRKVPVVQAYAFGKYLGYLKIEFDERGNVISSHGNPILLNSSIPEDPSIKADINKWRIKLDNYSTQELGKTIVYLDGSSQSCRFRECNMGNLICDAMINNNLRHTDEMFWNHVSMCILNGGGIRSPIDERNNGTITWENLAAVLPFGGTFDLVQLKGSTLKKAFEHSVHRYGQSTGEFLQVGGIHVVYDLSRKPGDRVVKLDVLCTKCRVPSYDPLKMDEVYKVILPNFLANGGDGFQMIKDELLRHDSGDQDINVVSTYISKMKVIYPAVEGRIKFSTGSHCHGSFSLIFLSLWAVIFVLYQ

Structure (SMILES) | IC50 (recombinant CD73) [µM] | IC50 [1] [µM]
Nc1nc(Cl)nc2c1ncn2[C@@H]1O[C@H](COC(Cc2ccccc2)(C(=O)O)C(=O)O)[C@@H](O)[C@H]1N [compound 55, 2-(((2R,3S,4R,5R)-4-amino-5-(6-amino-2-chloro-9H-purin-9-yl)-3-hydroxytetrahydrofuran-2-yl)methoxy)-2-benzylmalonic acid] |  | > 50
O=C(O)C(Cc1ccccc1)(OC[C@H]1O[C@@H](n2cnc3c(O)nc(Cl)nc32)[C@@H](F)[C@@H]1O)C(=O)O [compound 74, 2-benzyl-2-(((2R,3R,4S,5R)-5-(2-chloro-6-hydroxy-9H-purin-9-yl)-4-fluoro-3-hydroxytetrahydrofuran-2-yl)methoxy)malonic acid] | 1.66 | 2.56
COc1ccc(CC(OC[C@H]2O[C@@H](n3cnc4c(N)nc(Cl)nc43)[C@@H](F)[C@@H]2O)(C(=O)O)C(=O)O)cc1Cl [compound 85, 2-(((2R,3R,4S,5R)-5-(6-amino-2-chloro-9H-purin-9-yl)-4-fluoro-3-hydroxytetrahydrofuran-2-yl)methoxy)-2-(3-chloro-4-methoxybenzyl)malonic acid] | 0.183 | 
Nc1nc(Cl)nc2c1ncn2[C@@H]1O[C@H](COC(Cc2ccc(S(N)(=O)=O)cc2)(C(=O)O)C(=O)O)[C@@H](O)[C@@H]1F [compound 86, 2-(((2R,3R,4S,5R)-5-(6-amino-2-chloro-9H-purin-9-yl)-4-fluoro-3-hydroxytetrahydrofuran-2-yl)methoxy)-2-(4-sulfamoylbenzyl)malonic acid] | 0.062 | 
Nc1nc(Cl)nc2c1ncn2[C@@H]1O[C@H](COC(Cc2ccc3oc(C(=O)O)cc3c2)(C(=O)O)C(=O)O)[C@@H](O)[C@@H]1F [compound 88, 2-(((2R,3R,4S,5R)-5-(6-amino-2-chloro-9H-purin-9-yl)-4-fluoro-3-hydroxytetrahydro-furan-2-yl)methoxy)-2-((2-carboxybenzofuran-5-yl)methyl)malonic acid] | 0.238 | 
Nc1nc(Cl)nc2c1ncn2[C@@H]1O[C@H](COC(Cc2ccc(OCC(=O)O)cc2)(C(=O)O)C(=O)O)[C@@H](O)[C@@H]1F [compound 92, 2-(((2R,3R,4S,5R)-5-(6-amino-2-chloro-9H-purin-9-yl)-4-fluoro-3-hydroxytetrahydrofuran-2-yl)methoxy)-2-(4-(carboxymethoxy)benzyl) malonic acid] | 0.172 | 
Nc1nc(Cl)nc2c1ncn2[C@@H]1O[C@H](COC(Cc2csc3ccc(Cl)cc23)(C(=O)O)C(=O)O)[C@@H](O)[C@@H]1F [compound 96, 2-(((2R,3R,4S,5R)-5-(6-amino-2-chloro-9H-purin-9-yl)-4-fluoro-3-hydroxytetrahydrofuran-2-yl)methoxy)-2-((5-chlorobenzo[b]thiophen-3-yl)methyl)-malonic acid] | 0.788 | 
C[C@@]1(O)[C@H](O)[C@@H](COC(Cc2ccc(C(=O)O)cc2)(C(=O)O)C(=O)O)O[C@H]1n1cnc2c(N)nc(Cl)nc21 [compound 107] | 42.5 | 
O=C(O)C(Cc1ccccc1)(OC[C@H]1O[C@@H](n2cnc3c(SC4CCCC4)nc(Cl)nc32)[C@@H](F)[C@@H]1O)C(=O)O [compound 109] | 0.601 | 1.91
Nc1nc(Cl)nc2c1ncn2[C@@H]1O[C@H](COC(Cc2ccc3c(c2)OC(F)(F)O3)(C(=O)O)C(=O)O)[C@@H](O)[C@@H]1F [compound 110] | 0.066 | 0.361
NC(=O)c1ccc(CC(OC[C@H]2O[C@@H](n3cnc4c(N)nc(Cl)nc43)[C@@H](F)[C@@H]2O)(C(=O)O)C(=O)O)cc1 [compound 111] | 0.141 | 0.182
C[C@@]1(F)[C@H](O)[C@@H](COC(Cc2ccc(C(=O)O)cc2)(C(=O)O)C(=O)O)O[C@H]1n1cnc2c(N)nc(Cl)nc21 [compound 117] | 63.9 | 
Nc1nc(Cl)nc2c1ncn2[C@@H]1O[C@H](COC(Cc2ccccc2)(C(=O)O)C(=O)O)C[C@@H]1F [compound 119] | 28 | 
Nc1ncnc2c1ncn2[C@@H]1O[C@H](COC(Cc2cccc(OC(F)(F)F)c2)(C(=O)O)C(=O)OCCN2CCOCC2)[C@@H](O)[C@@H]1F (stereo partly shown) [compound 139] | 16.5 | 
Nc1nc(Cl)nc2c1ncn2[C@@H]1O[C@H](COC(Cc2ccc(NC(=O)c3cccs3)cc2)(C(=O)O)C(=O)O)[C@@H](O)[C@@H]1F [compound 140] | 0.03 | 
Nc1nc(Cl)nc2c1ncn2[C@@H]1O[C@H](COC(Cc2ccc(NC(=O)c3cccs3)cc2)(C(=O)O)C(=O)O)[C@@H](O)[C@@H]1F [compound 141] | 0.06 | 
Nc1nc(Cl)nc2c1ncn2[C@@H]1O[C@H](COC(Cc2ccccc2)(C(=O)O)C(=O)O)[C@@H](O)[C@@H]1Cl [compound 146] | 0.181 | 
CS(=O)(=O)c1ccc(CC(OC[C@H]2O[C@@H](n3cnc4c(N)nc(Cl)nc43)[C@@H](F)[C@@H]2O)(C(=O)O)C(=O)O)cc1 [compound 153] | 0.074 | 
Nc1nc(Cl)nc2c1ncn2[C@@H]1O[C@H](COC(Cc2ccccc2)(C(=O)O)C(=O)O)[C@@H](O)[C@@H]1F [compound 169] | 0.119 | 
Nc1nc(Cl)nc2c1ncn2[C@@H]1O[C@H](COC(Cc2ccc(C(=O)O)cc2)(C(=O)O)C(=O)O)[C@@H](O)[C@@H]1F [compound 171] | 0.114 | 

Further lines, results first:

IC50 (recombinant CD73) [µM] | IC50 [1] [µM] | Structure (SMILES)
0.718 | 0.598 | CCOC(=O)C(Cc1ccc(OC(F)(F)F)cc1)(OC[C@H]1O[C@@H](n2cnc3c(N)nc(Cl)nc32)[C@@H](F)[C@@H]1O)C(=O)O (single isomer, unassigned) [compound 37]
0.083 |  | Nc1nc(Cl)nc2c1ncn2[C@@H]1O[C@H](COC(Cc2ccc(C(=O)NCCC(=O)O)cc2)(C(=O)O)C(=O)O)[C@@H](O)[C@@H]1F [compound 87, 2-(((2R,3R,4S,5R)-5-(6-amino-2-chloro-9H-purin-9-yl)-4-fluoro-3-hydroxytetrahydro-furan-2-yl)methoxy)-2-(4-((2-carboxy-ethyl)carbamoyl)benzyl) malonic acid]
0.043 |  | Nc1nc(Cl)nc2c1ncn2[C@@H]1O[C@H](COC(Cc2ccc(OCC(F)(F)F)cc2)(C(=O)O)C(=O)O)[C@@H](O)[C@@H]1F [compound 89, 2-(((2R,3R,4S,5R)-5-(6-amino-2-chloro-9H-purin-9-yl)-4-fluoro-3-hydroxytetrahydrofuran-2-yl)methoxy)-2-(4-(2,2,2-trifluoroethoxy)benzyl) malonic acid]
0.906 |  | Cc1nnc(-c2ccc(CC(OC[C@H]3O[C@@H](n4cnc5c(N)nc(Cl)nc54)[C@@H](F)[C@@H]3O)(C(=O)O)C(=O)O)cc2)o1 [compound 94, 2-(((2R,3R,4S,5R)-5-(6-amino-2-chloro-9H-purin-9-yl)-4-fluoro-3-hydroxytetrahydrofuran-2-yl)methoxy)-2-(4-(5-methyl-1,3,4-oxadiazol-2-yl)benzyl) malonic acid]
0.105 |  | N#Cc1ccccc1-c1ccc(CC(OC[C@H]2O[C@@H](n3cnc4c(N)nc(Cl)nc43)[C@@H](F)[C@@H]2O)(C(=O)O)C(=O)O)cc1 [compound 95]
3.43 |  | Nc1nc(Cl)nc2c1ncn2[C@@H]1O[C@H](COC(Cc2nc3ccccc3s2)(C(=O)O)C(=O)O)[C@@H](O)[C@@H]1F [compound 97, 2-(((2R,3R,4S,5R)-5-(6-amino-2-chloro-9H-purin-9-yl)-4-fluoro-3-hydroxytetrahydrofuran-2-yl)methoxy)-2-(benzo[d]thiazol-2-ylmethyl)malonic acid]
0.512 |  | CNC(=O)c1ccc(CC(OC[C@H]2O[C@@H](n3cnc4c(N)nc(Cl)nc43)[C@@H](F)[C@@H]2O)(C(=O)O)C(=O)O)cc1 [compound 98, 2-(((2R,3R,4S,5R)-5-(6-amino-2-chloro-9H-purin-9-yl)-4-fluoro-3-hydroxytetrahydrofuran-2-yl)methoxy)-2-(4-(methylcarbamoyl)benzyl) malonic acid]
0.104 | 0.246 | Nc1nc(Cl)nc2c1ncn2[C@@H]1O[C@H](COC(Cc2ccc(F)c(F)c2F)(C(=O)O)C(=O)O)[C@@H](O)[C@@H]1F [compound 108]
> 200 |  | CCOC(=O)C(Cc1ccccc1)(OC[C@@H]1C[C@H](F)[C@H](n2cnc3c(N)nc(Cl)nc32)O1)C(=O)OCC [compound 118]
54.5 |  | COc1nc(N)c2ncn([C@@H]3O[C@H](COC(Cc4ccccc4)(C(=O)O)C(=O)O)C[C@@H]3F)c2n1 [compound 120]
0.242 | 0.836 | Nc1nc(Cl)nc2c1ncn2[C@@H]1O[C@H](COC(Cc2ccc(Cl)c(OC(F)(F)F)c2)(C(=O)O)C(=O)O)[C@@H](O)[C@@H]1F [compound 125]
25.3 |  | Nc1nc(Cl)nc2c1ncn2[C@@H]1O[C@H](COC(Cc2c(F)cc(Cl)cc2F)(C(=O)O)C(=O)O)[C@@H](O)[C@@H]1F [compound 126]
0.149 | 0.408 | Nc1nc(Cl)nc2c1ncn2[C@@H]1O[C@H](COC(Cc2ccccc2F)(C(=O)O)C(=O)O)[C@@H](O)[C@@H]1F [compound 127]
0.067 |  | Nc1nc(Cl)nc2c1ncn2[C@@H]1O[C@H](COC(Cc2ccc(-c3cccnc3)cc2)(C(=O)O)C(=O)O)[C@@H](O)[C@@H]1F [compound 142]
0.136 |  | Nc1nc(Cl)nc2c1ncn2[C@@H]1O[C@H](COC(Cc2ccc(-c3cncnc3)cc2)(C(=O)O)C(=O)O)[C@@H](O)[C@@H]1F [compound 143]
0.065 |  | Nc1nc(Cl)nc2c1ncn2[C@@H]1O[C@H](COC(Cc2ccc(-c3ccc(F)cc3)cc2)(C(=O)O)C(=O)O)[C@@H](O)[C@@H]1F [compound 144]
0.106 |  | Nc1nc(Cl)nc2c1ncn2[C@@H]1O[C@H](COC(Cc2ccc(C(=O)O)cc2)(C(=O)O)C(=O)O)[C@H](O)[C@@H]1F [compound 145]
> 50 |  | CCOC(=O)C(Cc1ccccc1)(OC[C@H]1O[C@@H](n2cnc3c(N)nc(Cl)nc32)[C@H](O)[C@@H]1O)c1nn[nH]n1 (stereo partly shown) [compound 193]

From patent US11034715B2, “Ectonucleotidase inhibitors and methods of use thereof” (Calithera Biosciences, Inc., priority 2016, dated 2021)
